Source: patent publication US20020071842A1, “Soluble CD1 compositions and uses thereof” (priority 2000, published 2002)

Assays:
Assay in all cases: Plate-bound mCD1d fusion protein hybridoma stimulation assay (IL-2 ELISA)
Assay type in all cases: cell-based, mouse
24.8.A hybridoma = conditions: for IL-2 secretion: 24.8 A NKT hybridoma, plate-bound mCD1d-IgGFc2a fusion protein preincubated with lipid antigen
Excerpt: (§1) The CD1d-restricted T cell clones 24.7, 24.8, 24.9 (NKT cell) and 14S.6, 14S.7, 14S.10, and 14S.15 (diverse TCRs) were all derived from spleen of wild type C57BL/6 mice, as described previously (Behar, S. M. et al., J. Immunol., 162:161-7 (1999)). To generate T cell hybridomas, the activated T cells were fused to the aminopterin-sensitive BW5147 αβTCR^− thymoma cell line using PEG1500, and hybrids were selected in HAT medium (Life Technologies, Gaithersburg, Md.). Resulting TT hybridomas were tested for recognition of RMA-S cells transfected with mCD1D1 compared to untransfected RMA-S cells, as described below. […] The hybridomas are distinguished from the original T cell clones by the addition of a letter to their names. The KT/7, KT/12, KT/22, and KT/23 and Vβ/9 NKT cell hybridomas were derived from NK1.1^+ T cells enriched from spleen of C57BL/6 mice by depletion of CD8+ T cells, naive T cells, and B cells by mAbs (anti-B220, CD8, and CD62L, or anti-CD8α, CD8β, and Me114) bound to magnetic microbeads, or to plastic. The purified cells were stimulated either by the anti-CD3 KT3 mAb (KT/7, KT/12, KT/22, KT/23), or by an anti-Vβ8.2 mAb (Vβ/9), and addition of IL-2 or IL-2 and IL-7. After 4-5 days of culture the cells were fused with BW5147 thymoma cells. The VII68, VIII24, XVI9, and XV104 diverse TCR hybridomas were generated from CD4^+ T cells from class 110 mice, as described previously (Cardell, S. et al., J. Exp. Med., 182:993-1004 (1995)). The DN32D3 hybridoma was derived as described (Lantz, O., and Bendelac, A., J. Exp. Med., 180:1097-106 (1994).
(§2) To test for recognition of the mCD1d fusion protein and purified or synthetic antigens, 96 well protein A coated plates (Pierce Chemical Company) were incubated with 400-600 ng/well of the fusion protein or a negative control IgG2a antibody, RPC5.4 or UPC10, in PBS, at pH 7.2. Lipid antigens were diluted into PBS and added where specified at the indicated molar ratio of antigen to fusion protein, (when not specified the ratio was 40:1). Protein A plates containing the fusion protein and antigen were incubated 24-48 hr at 37° C., then washed three times with 200 μl/well sterile PBS, pH 7.2, and two times with 200 μl/well sterile culture medium (containing RPMI supplemented with L-glutamine and penicillin/streptomycin, Life Technologies, Gaithersburg, Md., and 10% bovine calf serum, Hyclone Laboratories, Logan, Utah). For assays in which the PI was phospholipase treated, it was first diluted into 0.01M Tris, 0.15M NaCl, pH 7.5, containing 0.25 U PI-specific phospholipase C or 0.5 U phospholipase D (Sigma, St Louis, Mo.), and incubated 30 minutes at room temperature, then added to the protein A plates as described above. For assays in which the pH was varied during antigen incubation with the fusion protein, the fusion protein and α-GalCer were diluted into a 20 mM citrate/phosphate buffer of the specified pH, which contained 0.15 M NaCl, and after incubation, the samples were neutralized by addition of 1M Tris, pH 7.5. Hybridoma cells were added to fusion protein/antigen treated plates at a concentration of 1×10^5 cells/well, in a total volume of 150 μl/well. Assays were performed using 2-6 replicate wells. In some assays, an anti-mCD1d blocking antibody (19G11) was included at a final concentration of 20 μg/ml. The plates were incubated at 37° C. for 16-20 hr, and culture supernatants were withdrawn for analysis. Each experiment was performed at least three times.
(§3) IL-2 secreted in the hybridoma stimulation assays was quantitated in a double antibody sandwich ELISA, by comparison to a standard curve of purified murine IL-2 (Pharmingen, San Diego, Calif.). Hybridoma plate stimulation supernatants (used either neat or diluted) and serially diluted IL-2 standards were added to 96 well ELISA plates coated with a rat anti-mouse IL-2 capture antibody (Pharmingen).

14S.15.A hybridoma = conditions: 14S.15.A diverse TCR hybridoma; plate-bound mCD1d-IgGFc2a fusion protein preincubated with lipid antigen
Excerpt: as §1, §2
as §3, with “(Pharmingen). […]” for “(Pharmingen).”

14S.6.A hybridoma = conditions: 14S.6.A diverse TCR hybridoma; plate-bound mCD1d-IgGFc2a fusion protein preincubated with lipid antigen
Excerpt: as §1, §2
as §3, with “(Pharmingen). […]” for “(Pharmingen).”

DN32D3 hybridoma = conditions: DN32D3 NKT hybridoma; plate-bound mCD1d-IgGFc2a fusion protein preincubated with lipid antigen
Excerpt: as §1, §2
as §3, with “(Pharmingen). […]” for “(Pharmingen).”

KT/12 hybridoma = conditions: KT/12 NKT hybridoma; plate-bound mCD1d-IgGFc2a fusion protein preincubated with lipid antigen
Excerpt: as §1, §2
as §3, with “(Pharmingen). […]” for “(Pharmingen).”

VII68 hybridoma = conditions: VII68 diverse TCR hybridoma; plate-bound mCD1d-IgGFc2a fusion protein preincubated with lipid antigen
Excerpt: as §1, §2
as §3, with “(Pharmingen). […]” for “(Pharmingen).”

Vβ/9 hybridoma = conditions: Vβ/9 NKT hybridoma; plate-bound mCD1d-IgGFc2a fusion protein preincubated with lipid antigen
Excerpt: as §1, §2
as §3, with “(Pharmingen). […]” for “(Pharmingen).”

14S.7.N hybridoma = conditions: 14S.7.N diverse TCR hybridoma; plate-bound mCD1d-IgGFc2a fusion protein preincubated with lipid antigen
Excerpt: as §1, §2
as §3, with “(Pharmingen). […]” for “(Pharmingen).”

KT/23 hybridoma = conditions: KT/23 NKT hybridoma; plate-bound mCD1d-IgGFc2a fusion protein preincubated with lipid antigen
Excerpt: as §1, §2
as §3, with “(Pharmingen). […]” for “(Pharmingen).”

XV19 hybridoma = conditions: XV19 diverse TCR hybridoma; plate-bound mCD1d-IgGFc2a fusion protein preincubated with lipid antigen
Excerpt: as §1, §2
as §3, with “(Pharmingen). […]” for “(Pharmingen).”

XV104 hybridoma = conditions: XV104 diverse TCR hybridoma; plate-bound mCD1d-IgGFc2a fusion protein preincubated with lipid antigen
Excerpt: as §1, §2
as §3, with “(Pharmingen). […]” for “(Pharmingen).”

24.9.E hybridoma = conditions: 24.9 E NKT hybridoma; plate-bound mCD1d-IgGFc2a fusion protein preincubated with lipid antigen
Excerpt: as §1, §2
as §3, with “(Pharmingen). […]” for “(Pharmingen).”

KT/22 hybridoma = conditions: KT/22 NKT hybridoma; plate-bound mCD1d-IgGFc2a fusion protein preincubated with lipid antigen
Excerpt: as §1, §2
as §3, with “(Pharmingen). […]” for “(Pharmingen).”

KT/7 hybridoma = conditions: KT/7 NKT hybridoma; plate-bound mCD1d-IgGFc2a fusion protein preincubated with lipid antigen
Excerpt: as §1, §2
as §3, with “(Pharmingen). […]” for “(Pharmingen).”

VIII24 hybridoma = conditions: VIII24 diverse TCR hybridoma; plate-bound mCD1d-IgGFc2a fusion protein preincubated with lipid antigen
Excerpt: as §1, §2
as §3, with “(Pharmingen). […]” for “(Pharmingen).”

24.7.C hybridoma = conditions: 24 7.C NKT hybridoma; plate-bound mCD1d-IgGFc2a fusion protein preincubated with lipid antigen
Excerpt: as §1, §2
as §3, with “(Pharmingen). […]” for “(Pharmingen).”

| Substance | IL-2 secretion (24.8.A hybridoma) | IL-2 secretion (14S.15.A hybridoma) | IL-2 secretion (14S.6.A hybridoma) | IL-2 secretion (DN32D3 hybridoma) | IL-2 secretion (KT/12 hybridoma) | IL-2 secretion (VII68 hybridoma) | IL-2 secretion (Vβ/9 hybridoma) | IL-2 secretion (14S.7.N hybridoma) | IL-2 secretion (KT/23 hybridoma) | IL-2 secretion (XV19 hybridoma) | IL-2 secretion (XV104 hybridoma) | IL-2 secretion (24.9.E hybridoma) | IL-2 secretion (KT/22 hybridoma) | IL-2 secretion (KT/7 hybridoma) | IL-2 secretion (VIII24 hybridoma) | IL-2 secretion (24.7.C hybridoma) | IL-2 response to mCD1d fusion protein pre-treated with purified or synthetic lipid (24.8.A hybridoma; 24.8.A hybridoma, compared to untreated or buffer treated fusion protein) |
| --- | --- | --- | --- | --- | --- | --- | --- | --- | --- | --- | --- | --- | --- | --- | --- | --- | --- |
| monogalactosyl diglyceride [MGDG] | + (“+” indicates 50-250 pg/ml) | 0 (A “0” indicates a mean of less than 50 pg/ml IL-2 was secreted) | 0 (A “0” indicates a mean of less than 50 pg/ml IL-2 was secreted) | 0 (A “0” indicates a mean of less than 50 pg/ml IL-2 was secreted) | 0 (A “0” indicates a mean of less than 50 pg/ml IL-2 was secreted) | 0 (A “0” indicates a mean of less than 50 pg/ml IL-2 was secreted) | 0 (A “0” indicates a mean of less than 50 pg/ml IL-2 was secreted) | 0 (A “0” indicates a mean of less than 50 pg/ml IL-2 was secreted) | 0 (A “0” indicates a mean of less than 50 pg/ml IL-2 was secreted) | 0 (A “0” indicates a mean of less than 50 pg/ml IL-2 was secreted) | 0 (A “0” indicates a mean of less than 50 pg/ml IL-2 was secreted) | 0 (A “0” indicates a mean of less than 50 pg/ml IL-2 was secreted) | 0 (A “0” indicates a mean of less than 50 pg/ml IL-2 was secreted) | 0 (A “0” indicates a mean of less than 50 pg/ml IL-2 was secreted) | 0 (A “0” indicates a mean of less than 50 pg/ml IL-2 was secreted) | 0 (A “0” indicates a mean of less than 50 pg/ml IL-2 was secreted) | – |
| phosphatidylglycerol [PG] | ++ (“++” indicates 250-1000 pg/ml) | + (“+” indicates 50-250 pg/ml) | + (“+” indicates 50-250 pg/ml) | 0 (A “0” indicates a mean of less than 50 pg/ml IL-2 was secreted) | 0 (A “0” indicates a mean of less than 50 pg/ml IL-2 was secreted) | 0 (A “0” indicates a mean of less than 50 pg/ml IL-2 was secreted) | 0 (A “0” indicates a mean of less than 50 pg/ml IL-2 was secreted) | + (“+” indicates 50-250 pg/ml) | 0 (A “0” indicates a mean of less than 50 pg/ml IL-2 was secreted) | 0 (A “0” indicates a mean of less than 50 pg/ml IL-2 was secreted) | 0 (A “0” indicates a mean of less than 50 pg/ml IL-2 was secreted) | + (“+” indicates 50-250 pg/ml) | 0 (A “0” indicates a mean of less than 50 pg/ml IL-2 was secreted) | 0 (A “0” indicates a mean of less than 50 pg/ml IL-2 was secreted) | 0 (A “0” indicates a mean of less than 50 pg/ml IL-2 was secreted) | 0 (A “0” indicates a mean of less than 50 pg/ml IL-2 was secreted) | dose dependent responses |
